Measurements published in patent US10183914B2 (BAYER CROPSCIENCE AKTIENGESELLSCHAFT, priority 2014, dated 2019).

Experiments:
Viola tricolor = experiment: Pre-emergence herbicidal effect; format: in vivo; details: 3 weeks
From the text: (§1) Seeds of monocotyledonous and dicotyledonous weed plants and crop plants are laid out in wood-fiber pots in sandy loam and covered with soil. The compounds of the invention, formulated in the form of wettable powders (WP) or as emulsion concentrates (EC), are then applied to the surface of the covering soil as aqueous suspension or emulsion at a water application rate equating to 600 to 800 L/ha with addition of 0.2% wetting agent.
(§2) After the treatment, the pots are placed in a greenhouse and kept under good growth conditions for the trial plants. The damage to the trial plants is scored visually after a trial duration of 3 weeks by comparison with untreated controls (herbicidal activity in percent (%): 100% efficacy=the plants have died, 0% efficacy=like control plants).

Amaranthus retroflexus = experiment: Pre-emergence herbicidal effect; format: in vivo; details: 3 weeks
From the text: as §1, §2

Setaria viridis = experiment: Pre-emergence herbicidal effect; format: in vivo; details: 320 g/ha, 3 weeks
From the text: as §1, §2

Veronica persica = experiment: Pre-emergence herbicidal effect; format: in vivo; details: 3 weeks
From the text: as §1, §2

Stellaria media = experiment: Pre-emergence herbicidal effect; format: in vivo; details: 3 weeks
From the text: as §1, §2

Echinochloa crus-galli = experiment: Pre-emergence herbicidal effect; format: in vivo; details: 3 weeks
From the text: as §1, §2

Matricaria inodora = experiment: Pre-emergence herbicidal effect; format: in vivo; details: 3 weeks
From the text: as §1, §2

[1] = logp (HCOOH), physicochemical characterization; details: for chromatographic logP: HCOOH (formic acid)
Oryza sativa [2] = experiment: Post-emergence herbicidal effect and crop plant compatibility; format: in vivo; details: visual scoring after about 3 weeks
Protocol: (§3) Seeds of monocotyledonous and dicotyledonous weed and crop plants are laid out in sandy loam in wood-fiber pots, covered with soil and cultivated in a greenhouse under good growth conditions. 2 to 3 weeks after sowing, the test plants are treated at the one-leaf stage. The compounds of the invention, formulated in the form of wettable powders (WP) or as emulsion concentrates (EC), are then sprayed onto the green parts of the plants as aqueous suspension or emulsion at a water application rate equating to 600 to 800 L/ha with addition of 0.2% wetting agent. After the trial plants have been left to stand in a greenhouse under optimal growth conditions for about 3 weeks, the efficacy of the formulations is scored visually in comparison to untreated controls (herbicidal action in percent (%): 100% efficacy=the plants have died, 0% efficacy=like control plants).

[3] = system: Triticum aestivum (spring); experiment: as above; format: in vivo; details: visual scoring after about 3 weeks
Protocol: as §3

Zea mays [4] = experiment: as above; format: in vivo; details: visual scoring after about 3 weeks
Protocol: as §3

Oryza sativa [5] = experiment: Pre-emergence herbicidal effect and crop plant compatibility; format: in vivo; details: 3 weeks
From the text: as §1, §2

[6] = system: Triticum aestivum (spring); experiment: as above; format: in vivo; details: 3 weeks
From the text: as §1, §2

Zea mays [7] = experiment: as above; format: in vivo; details: 3 weeks
From the text: as §1, §2

Alopecurus myosuroides = experiment: Pre-emergence herbicidal effect; format: in vivo; details: 3 weeks
From the text: as §1, §2

Polygonum convolvulus = experiment: Pre-emergence herbicidal effect; format: in vivo; details: 3 weeks
From the text: as §1, §2

| SMILES | VIOTR herbicidal activity in percent (Viola tricolor; 80 g/ha) [%] | VIOTR herbicidal activity in percent (Viola tricolor; 320 g/ha) [%] | AMARE herbicidal activity in percent (Amaranthus retroflexus; 80 g/ha) [%] | AMARE herbicidal activity in percent (Amaranthus retroflexus; 320 g/ha) [%] | SETVI herbicidal activity in percent (Setaria viridis) [%] | VERPE herbicidal activity in percent (Veronica persica; 80 g/ha) [%] | VERPE herbicidal activity in percent (Veronica persica; 320 g/ha) [%] | STEME herbicidal activity in percent (Stellaria media; 320 g/ha) [%] | ECHCG herbicidal activity in percent (Echinochloa crus-galli; 320 g/ha) [%] | MATIN herbicidal activity in percent (Matricaria inodora; 320 g/ha) [%] | post-emergence efficacy ORYSA (Oryza sativa [2]; 80 g/ha) [%] | post-emergence efficacy ORYSA (Oryza sativa [2]; 320 g/ha) [%] | post-emergence efficacy TRZAS ([3]; 80 g/ha) [%] | post-emergence efficacy TRZAS ([3]; 320 g/ha) [%] | ORYSA herbicidal activity in percent (Oryza sativa [5]; 80 g/ha) [%] | TRZAS herbicidal activity in percent ([6]; 80 g/ha) [%] | TRZAS herbicidal activity in percent ([6]; 320 g/ha) [%] | ZEAMX herbicidal activity in percent (Zea mays [7]; 80 g/ha) [%] | ZEAMX herbicidal activity in percent (Zea mays [7]; 320 g/ha) [%] | MATIN herbicidal activity in percent (Matricaria inodora; 80 g/ha) [%] | further results |
| --- | --- | --- | --- | --- | --- | --- | --- | --- | --- | --- | --- | --- | --- | --- | --- | --- | --- | --- | --- | --- | --- |
| O=C1CC(c2ccc(F)cc2)Cc2nc(N[C@@H]3CCCc4ccccc43)ncc21 (stereo partly drawn) [2.92] | 90 | 100 | 80 | 100 | 100 | 100 | 100 | 100 | 100 | 90 | 0 | 0 | 0 | 10 | 0 | 0 | 20 | 0 | 20 | – | STEME herbicidal activity in percent (Stellaria media; 80 g/ha): 100%; logp (HCOOH) [1]: oily; logp (HCOOH): 4.05; 1H-NMR (CDCl3, 400 MHZ, δ in ppm): 1.95 (m, 3H, 2H; post-emergence efficacy ZEAMX (Zea mays [4]; 80 g/ha): 0%; post-emergence efficacy ZEAMX (Zea mays [4]; 320 g/ha): 0%; ORYSA herbicidal activity in percent (Oryza sativa [5]; 320 g/ha): 20% |
| CC(=O)c1cnc(NC2CCOc3c(C)cccc32)nc1 (racemic) [1.8] | – | 100 | 100 | 100 | 80 | – | 100 | – | 90 | 100 | – | – | – | – | – | 0 | 0 | 0 | 0 | – | ALOMY herbicidal activity in percent (Alopecurus myosuroides; 80 g/ha): 0%; ALOMY herbicidal activity in percent (Alopecurus myosuroides; 320 g/ha): 0% |
| CC(=O)c1cnc(N[C@@H]2CCCc3ccccc32)nc1C [1.82, 1-{4-methyl-2-[(1R)-1,2,3,4-tetrahydronaphthalen-1-ylamino]pyrimidin-5-yl}ethanone] | 100 | 100 | 90 | 90 | – | 100 | 100 | 100 | – | 90 | – | – | – | 0 | 0 | 0 | 0 | 0 | – | 90 | POLCO herbicidal activity in percent (Polygonum convolvulus; 320 g/ha): 80%; chromatographic logP [1]: 3.03; ORYSA herbicidal activity in percent (Oryza sativa [5]; 320 g/ha): 3% |
| CC(=O)c1cnc(NC2CCOc3c(C)cc(F)cc32)nc1C (racemic) [1.87] | 100 | 100 | 80 | 100 | 100 | – | 100 | 100 | 100 | 100 | – | – | – | – | 0 | 0 | 0 | 0 | 10 | 90 | – |
| CC(=O)c1cnc(N[C@@H]2CCCc3ccccc32)nc1 [1.3, 1-{2-[(1R)-1,2,3,4-tetrahydronaphthalen-1-ylamino]pyrimidin-5-yl}ethanone] | – | – | 100 | 100 | 80 | 100 | 100 | 90 | 100 | 100 | – | – | – | – | 20 | 20 | 20 | 20 | – | 90 | ECHCG herbicidal activity in percent (Echinochloa crus-galli; 80 g/ha): 80%; POLCO herbicidal activity in percent (Polygonum convolvulus; 80 g/ha): 80%; POLCO herbicidal activity in percent (Polygonum convolvulus; 320 g/ha): 100%; chromatographic logP [1]: 2.51 |
| CC(=O)c1cnc(N[C@@H]2CCCc3cc(F)ccc32)nc1C [1.88] | – | 90 | 80 | 100 | – | 100 | 100 | 100 | – | 100 | 0 | 0 | 0 | 20 | 0 | 0 | 0 | 0 | 0 | 100 | post-emergence efficacy ZEAMX (Zea mays [4]; 80 g/ha): 0%; post-emergence efficacy ZEAMX (Zea mays [4]; 320 g/ha): 10% |
